Data from patent EP3720857B1, “2-OXO-5H-CHROMENO[4,3-B]PYRIDINES FOR USE IN THE TREATMENT OF HEPATITIS B” (Galapagos NV, priority 2017, dated 2019).

The molecules below were run on hepatitis virus B (HBV) infection (assay: HepG2 NTCP assay (HBcAg staining as marker of HBV infection)). Conditions: HepG2-NTCP cells infected with HBV, HBV core antigen (HBcAg) as marker of infection.
Type: cell-based
Excerpt: The principle of the hepG2-NTCP assay is to measure the effect of a test compound on the inhibition of the hepatitis virus B (HBV) infection compared to a reference compound. To be able to infect the hepatocellular carcinoma cells (HepG2) with HBV, HepG2 cells were stably transfected with the Na+-taurocholate co-transporting polypeptide (NTCP) receptor, also referred to as Sodium/bile acid cotransporter (SLC10A1), which is necessary for HBV infection. In this assay the HBV core antigen (HBcAg) is used as a marker of HBV infection. Nuclei count is used as an indication for compound toxicity.
On day one, HepG2-NTCP cells ((Ni et al., 2014)) are seeded at 5000 cells in 50 µL per well in assay medium (DMEM high glucose supplemented with 10% non-heat inactivated (non HI) fetal bovine serum (FBS), 1% P/S, 1% L-glutamine and 1% MEM NEAA) in 384 well plate and incubated at 37°C, 5% CO2 overnight.
Compounds are prepared as 10 point serial dilutions using 1/3 dilution steps in 100% DMSO starting from 10 mM highest concentration, unless otherwise requested for very potent compounds, which started from 5mM or 1mM stock. Compounds are further diluted 1/500 in assay medium.
A negative control (vehicle: 24 wells with 0.2% DMSO) and positive control (24 wells with 100nM Myrcludex B (Cas no.: 406461-66-3), 0.2% DMSO and in 10 point DR) are included in the experiments.
On the second day, 40µl medium is removed from the cells with the plate washer (Select 405 microplate washer, Biotek). 15 µL of diluted compound series is transferred to the assay plate and cells are infected with 15 µL of HBV mix (HBV virus, 4%PEG, 1%DMSO in assay medium). The infection is performed in assay medium containing final concentration of 1% DMSO. The assay plate is incubated at 37°C, 5% CO2 overnight.
The next day, 30µl compound and HBV mix are removed from the assay plate with the plate washer and 30 µL of compound series diluted 1/500 in assay medium containing final concentration of 2.5% DMSO is added to the cell assay plate. The assay plate is incubated at 37°C, 5% CO2 for 5 days.
After 5 days of incubation, supernatant is removed from the cells with the plate washer. Cells are fixed with 50 µL of 3.7% formaldehyde added with the Well mate (Matrix technologies) and incubated for 30 min at room temperature. After fixation, cells are washed four times with phosphate buffer saline (1xPBS, 137mM NaCl, 10mM na2HPO4, 2.7mM KCl, 1.8mM KH2PO4 at pH7.4). The cells are finally subjected to HBc staining.
First, the assay plate is blocked with blocking buffer (2%FBS, 3% BSA, 0.2% TritonX100 in PBS) for 1 h at room temperature (optional to block overnight at 4°C).
After 4 washes of PBST (1XPBS + 0.05% Tween) with the plate washer, the assay plate is incubated with 30 µL diluted primary antibody (1/700 Rabbit anti-HBV core antigen, Dako, B0586 or 1/350 Rabbit anti HBV core antigen, Invitrogen, PA516368) in blocking buffer and incubated for 90 min at room temperature.
After 4 washes of PBST with the plate washer, the assay plate is incubated with 50 µL of secondary antibody (Donkey-anti-rabbit Alexa 488 antibody, Lifetechnologies A21206) 1/500 diluted in blocking buffer and incubated for 60 min at room temperature and in the dark.
The assay plate is washed 4 times with PBST on the plate washer and incubated with 50µL of DAPI (Sigma D9542, stock 5mg/mL) 1/10000 diluted in PBS for 15-30 min at room temperature and in the dark. The assay plate is now ready for read out on the InCell Analyzer 2200 (GE Healthcare).
Raw data are generated following read-out performed on InCell 2200 and are imported into the galapagos LIMS for automated calculation of percentage inhibition (PIN) and toxicity by nuclei count, using the control wells mentioned above, and creation of Dose Response curves. Table V. Hepg2 NTCP assay activity of illustrative compounds of the invention

| Structure (SMILES) | IC50 [nM] |
| --- | --- |
| COc1cc2c(cc1OCC1COC1)OC(C(C)C)c1cc(C(=O)O)c(=O)n(C3CC3)c1-2 (stereo not shown) [Compound 34, 1-cyclopropyl-5-isopropyl-9-methoxy-8-(oxetan-3-ylmethoxy)-2-oxo-5H-chromeno[4,3-b]pyridine-3-carboxylic acid] | 1 to 20 |
| COc1cc2c(cc1OCC(C)C)OC(C(C)C)c1cc(C(=O)O)c(=O)n(C3CC3)c1-2 (stereo not shown) [Compound 38, 1-cyclopropyl-8-isobutoxy-5-isopropyl-9-methoxy-2-oxo-5H-chromeno[4,3-b]pyridine-3-carboxylic acid] | 1 to 20 |
| COc1cc2c(cc1OC(C)C)OC(C(C)C)c1cc(C(=O)O)c(=O)n(C3CC3)c1-2 (stereo not shown) [Compound 39, 1-cyclopropyl-8-isopropoxy-5-isopropyl-9-methoxy-2-oxo-5H-chromeno[4,3-b]pyridine-3-carboxylic acid] | 1 to 20 |
| CCCOc1cc2c(cc1OC)-c1c(cc(C(=O)O)c(=O)n1C1CC1)C(C(C)C)O2 (stereo not shown) [Compound 40, 1-cyclopropyl-5-isopropyl-9-methoxy-2-oxo-8-propoxy-5H-chromeno[4,3-b]pyridine-3-carboxylic acid] | 1 to 20 |
| CCOCCOc1cc2c(cc1OC)-c1c(cc(C(=O)O)c(=O)n1C1CC1)C(C(C)C)O2 (stereo not shown) [Compound 42, 1-cyclopropyl-8-(2-ethoxyethoxy)-5-isopropyl-9-methoxy-2-oxo-5H-chromeno[4,3-b]pyridine-3-carboxylic acid] | 1 to 20 |
| COCCCOc1cc2c(cc1F)-c1c(cc(C(=O)O)c(=O)n1C1CC1)C(C1(C)COC1)O2 (stereo not shown) [Compound 49, 1-cyclopropyl-9-fluoro-8-(3-methoxypropoxy) -5-(3-methyloxetan-3-yl)-2-oxo-5H-chromeno[4,3-b]pyridine-3-carboxylic acid] | 0.001 to 1 |
| CC(C)C1Oc2cc(OC[C@H]3COCCO3)c(Cl)cc2-c2c1cc(C(=O)O)c(=O)n2C1CC1 (stereo partly drawn) [Compound 51, 9-chloro-1-cyclopropyl-8-[[(2R)-1,4-dioxan-2-yl]methoxy]-5-isopropyl-2-oxo-5H-chromeno[4,3-b]pyridine-3-carboxylic acid] | 0.001 to 1 |
| CC(C)C1Oc2cc(OCC3(C)COC3)c(Cl)cc2-c2c1cc(C(=O)O)c(=O)n2C1CC1 (stereo not shown) [Compound 52, 9-chloro-1-cyclopropyl-5-isopropyl-8-[(3-methyloxetan-3-yl)methoxy]-2-oxo-5H-chromeno[4,3-b]pyridine-3-carboxylic acid] | 0.001 to 1 |
| COCCCOc1cc2c(cc1Cl)-c1c(cc(C(=O)O)c(=O)n1C1CC1)C(C1CCOCC1)O2 (stereo not shown) [Compound 54, 9-chloro-1-cyclopropyl-8-(3-methoxypropoxy) -2-oxo-5-tetrahydropyran-4-yl-5H-chromeno[4,3-b]pyridine-3-carboxylic acid] | 0.001 to 1 |
| CC1(C2Oc3cc(OCC4CC4)c(Cl)cc3-c3c2cc(C(=O)O)c(=O)n3C2CC2)COC1 (stereo not shown) [Compound 57, 9-chloro-1-cyclopropyl-8-(cyclopropylmethoxy)-5-(3-methyloxetan-3-yl)-2-oxo-5H-chromeno[4,3-b]pyridine-3-carboxylic acid] | 1 to 20 |
| [2H]C([2H])([2H])Oc1cc2c(cc1Cl)-c1c(cc(C(=O)O)c(=O)n1C1CC1)C(C1(C)COC1)O2 (stereo not shown) [Compound 58, 9-chloro-1-cyclopropyl-5-(3-methyloxetan-3-yl)-2-oxo-8-(trideuteriomethoxy)-5H-chromeno[4,3-b]pyridine-3-carboxylic acid] | 0.001 to 1 |

Now from value to molecule:

| IC50 [nM] | Structure (SMILES) |
| --- | --- |
| 1 to 20 | COc1cc2c(cc1OCC1COCCO1)OC(C(C)C)c1cc(C(=O)O)c(=O)n(C3CC3)c1-2 (stereo not shown) [Compound 33, 1-cyclopropyl-8-(1,4-dioxan-2-ylmethoxy)-5-isopropyl-9-methoxy-2-oxo-5H-chromeno[4,3-b]pyridine-3-carboxylic acid] |
| 20 to 100 | COc1cc2c(cc1OCC1CNC(=O)O1)OC(C(C)C)c1cc(C(=O)O)c(=O)n(C3CC3)c1-2 (stereo not shown) [Compound 35, 1-cyclopropyl-5-isopropyl-9-methoxy-2-oxo-8-[(2-oxooxazolidin-5-yl)methoxy]-5H-chromeno[4,3-b]pyridine-3-carboxylic acid] |
| 1 to 20 | COc1cc2c(cc1OCCCO)OC(C(C)C)c1cc(C(=O)O)c(=O)n(C3CC3)c1-2 (stereo not shown) [Compound 36, 1-cyclopropyl-8-(3-hydroxypropoxy) -5-isopropyl-9-methoxy-2-oxo-5H-chromeno[4,3-b]pyridine-3-carboxylic acid] |
| 1 to 20 | CCOc1cc2c(cc1OC)-c1c(cc(C(=O)O)c(=O)n1C1CC1)C(C(C)C)O2 (stereo not shown) [Compound 37, 1-cyclopropyl-8-ethoxy-5-isopropyl-9-methoxy-2-oxo-5H-chromeno[4,3-b]pyridine-3-carboxylic acid] |
| > 100 | COc1cc2c(cc1OCc1ccccc1)OC(C(C)C)c1cc(C(=O)O)c(=O)n(C3CC3)c1-2 (stereo not shown) [Compound 41, 8-benzyloxy-1-cyclopropyl-5-isopropyl-9-methoxy-2-oxo-5H-chromeno[4,3-b]pyridine-3-carboxylic acid] |
| 1 to 20 | COc1cc2c(cc1OCC1(C#N)CCC1)OC(C(C)C)c1cc(C(=O)O)c(=O)n(C3CC3)c1-2 (stereo not shown) [Compound 43, 8-[(1-cyanocyclobutyl)methoxy]-1-cyclopropyl-5-isopropyl-9-methoxy-2-oxo-5H-chromeno[4,3-b]pyridine-3-carboxylic acid] |
| > 100 | COCCCOc1cc2c(cc1F)-c1c(cc(C(=O)O)c(=O)n1C1CC1)[C@@H](C(C)C)O2 [Compound 45, (5R)-1-cyclopropyl-9-fluoro-5-isopropyl-8-(3-methoxypropoxy)-2-oxo-5H-chromeno[4,3-b]pyridine-3-carboxylic acid] |
| 0.001 to 1 | COCCCOc1cc2c(cc1Cl)-c1c(cc(C(=O)O)c(=O)n1C1CCC1)C(C1(C)COC1)O2 (stereo not shown) [Compound 48, 9-chloro-1-cyclobutyl-8-(3-methoxypropoxy) -5-(3-methyloxetan-3-yl)-2-oxo-5H-chromeno[4,3-b]pyridine-3-carboxylic acid] |
| 0.001 to 1 | CC(C)C1Oc2cc(OC[C@@H]3COCCO3)c(Cl)cc2-c2c1cc(C(=O)O)c(=O)n2C1CC1 (stereo partly drawn) [Compound 50, 9-chloro-1-cyclopropyl-8-[[(2S)-1,4-dioxan-2-yl]methoxy]-5-isopropyl-2-oxo-5H-chromeno[4,3-b]pyridine-3-carboxylic acid] |
| 0.001 to 1 | COCCCOc1cc2c(cc1Cl)-c1c(cc(C(=O)O)c(=O)n1C1CC1)C(C1CCOC1)O2 (stereo not shown) [Compound 53, 9-chloro-1-cyclopropyl-8-(3-methoxypropoxy) -2-oxo-5-tetrahydrofuran-3-yl-5H-chromeno[4,3-b]pyridine-3-carboxylic acid] |
| 0.001 to 1 | COc1cc2c(cc1Cl)-c1c(cc(C(=O)O)c(=O)n1C1CC1)C(C1(C)COC1)O2 (stereo not shown) [Compound 55, 9-chloro-1-cyclopropyl-8-methoxy-5-(3-methyloxetan-3-yl)-2-oxo-5H-chromeno[4,3-b]pyridine-3-carboxylic acid] |
| 0.001 to 1 | CCOc1cc2c(cc1Cl)-c1c(cc(C(=O)O)c(=O)n1C1CC1)C(C1(C)COC1)O2 (stereo not shown) [Compound 56, 9-chloro-1-cyclopropyl-8-ethoxy-5-(3-methyloxetan-3-yl)-2-oxo-5H-chromeno[4,3-b]pyridine-3-carboxylic acid] |
| > 100 | O=C(O)c1cc2c(n(C3CC3)c1=O)-c1cc(F)c(F)cc1OC2 [Compound 59, 1-cyclopropyl-8,9-difluoro-2-oxo-5H-chromeno[4,3-b]pyridine-3-carboxylic acid] |
| > 100 | O=C(O)c1cc2c(n(C3CC3)c1=O)-c1cc(Cl)c(F)cc1OC2 [Compound 60, 9-chloro-1-cyclopropyl-8-fluoro-2-oxo-5H-chromeno[4,3-b]pyridine-3-carboxylic acid] |
